Earlier results on 2 compounds are cited in patent US20250295594A1, “ENTERAL SUSTAINED-RELEASE SUGAR ALCOHOL ADDITIVE AND PREPARATION METHOD AND APPLICATION THEREOF” (ZHEJIANG HUAKANG PHARMACEUTICAL CO., LTD., priority 2020, published 2025).

For the series the following is noted: existing experimental data, unformulated sugar / sugar alcohol.

As to `OC[C@@H](O)[C@H](O)[C@@H](O)CO` [xylitol], the “absorption rate of the small intestine” value is 60%.
Regarding `O=C[C@H](O)[C@@H](O)[C@@H](O)CO` [arabinose, L-arabinose], the “absorption rate of the small intestine” value is given as 70%.
